One experiment has as its system Huh7-GNMT cells. The experiment is described as follows: Sorafenib cell viability in Huh7-GFP and Huh7-GNMT cells. In kind it is cell-based, human. The following applies: 2.5 μM sorafenib. The method, then:
The cell viability is determined after Huh7-GFP cells capable of expressing Green fluorescent protein (GFP) and Huh7-GNMT cells are treated with an increased concentration of sorafenib.
Please refer to FIG. 26, which illustrates the effect of sorafenib on cell proliferation, wherein numerals 1 and 2 denote Huh7-GFP cells and Huh7-GNMT respectively.
Stablized cells comprises Huh7-GFP, Huh7-GNMT, Huh7-shGNMT, Huh7-shLacZ and Huh7-shMyc, which are established via the lentivirus system and cultured in Dulbecco's Modified Eagle's Medium (DMEM) (Gibco BRL, Grand Island, N.Y., USA) with 1 μg/ml puromycin.

For experiment [1], the system named is Huh7-GFP and Huh7-GNMT transfected cells. As to the kind of experiment: Sorafenib in Huh7-GFP / Huh7-GNMT xenograft. In kind it is in vivo, NOD-SCID mice. The method, then: To assess the effect of additional GNMT to administering sorafenib, female nonobese diabetic/severe combined immunodeficiency (NOD-SCID) mice lacking thymus gland were subcutaneously injected with […] or Huh7-GFP cells. The mice were randomly grouped and treated with a sorafenib or a physiological saline. Overexpression of GNMT inhibits cancer cell proliferation compared to the tumor due to Huh7-GFP cells.
Please refer to FIG. 27, which illustrates that the tumor cells are treated with the compound of sorafenib, wherein the numeral 1 is for Huh7-GFP transfected cells administered with a physiological saline, the numeral 2 is for Huh7-GNMT transfected cells administered with a physiological saline, the numeral 3 is for Huh7-GFP transfected cells administered with 10 mg/kg sorafenib and the numeral 4 is for Huh7-GNMT transfected cells administered with 10 mg/kg sorafenib. […] Based on the above results, a survey for the effect of PGG combined with sorafenib as a combination therapy to liver cancer was conducted. […]
(§1) Tumor growth was monitored (every day or three times per week) by using Vernier caliper measurement of the length (L) and width (W) of the tumor.
(§2) Tumor volume (TV) was calculated by using the formula volume=(L×W^2)/2.

Another experiment deals with Huh7 cells. As to the kind of experiment: Combination treatment, Huh7 xenograft tumor volume. Format: in vivo, NOD-SCID mice. The following applies: sorafenib 10 mpk; F3-6 25 mpk or 300 mpk. Here is the method:
Please refer to FIG. 29, which illustrates the tumor volume, wherein the numeral 1 is for a physiological saline solution, the numeral 2 is for F3-6 (25 mg/kg (mpk)), the numeral 3 is for F3-6 (300 mpk), the numeral 4 is for sorafenib (10 mpk), the numeral 5 is for F3-6 (25 mpk) with sorafenib (10 mpk), and the numeral 6 is for PGG (25 mpk) with sorafenib (10 mpk).
To assess the combinatory effect of drugs, female nonobese diabetic/severe combined immunodeficiency (NOD-SCID) mice lacking thymus gland were injected with Huh7 cells (2×10^6).
Mice are administered F3-6 (25 mpk), F3-6 (300 mpk) or PGG (25 mpk) three times per week, and sorafenib (10 mpk) twice per week alone or combined with F3-6 or PGG as illustrated in FIG. 29.
as §1, §2

Take `CNC(=O)c1cc(Oc2ccc(NC(=O)Nc3ccc(Cl)c(C(F)(F)F)c3)cc2)ccn1` [sorafenib, 4-[4-[[4-chloro-3-(trifluoromethyl)phenyl]carbamoylamino]phenoxy]-N-methyl-pyridine-2-carbox-amide]: the “viability of GNMT stable cells compared to GFP control cells” value in the experiment with Huh7-GNMT cells is “decreased significantly”. For the same molecule, the “size of the tumor, Huh7-GNMT transfected cells, compared with other groups” value in experiment [1] (10 mg/kg) is recorded as “reducing the size of the tumor is statistically significant”. In addition, the tumor growth entry in experiment [1] (oral 10 mpk, three days a week) is listed as “significantly inhibits tumor growth”. Also, in the experiment with Huh7 cells, the “tumor growth, single drug” value was “effective in inhibiting the tumor growth”.

For the origin of these results see US11000535B2, “Anticancer composition and use thereof” (KAOHSIUNG MEDICAL UNIVERSITY, priority 2015, dated 2021).
